# Experimental data as given in paper PMC5007978, “A chemical with proven clinical safety rescues Down-syndrome-related phenotypes in through DYRK1A inhibition” (Disease Models & Mechanisms, 2016).
# System: calcineurin-NFAT signaling
# Experiment: NFAT-RE promoter luciferase reporter assay (NRE-Luc) in 293T cells
# Assay type: cell-based
# Conditions: IM and PMA (10 nM), 1, 3 and 10 μM
# Experimental: Fig. 5. […] Firefly luciferase activities were measured using One-Glo reagents. Luciferase activity in the sample with reporter plasmid alone was set to 1, and the relative luciferase activities were calculated. Means±s.d. were determined from two independent experiments.
# Treatment with IM and phorbol 12-myristate 13-acetate (PMA) induced a dramatic increase in luciferase activity (∼20 fold) as a result of the nuclear translocation of NFATc1 and the subsequent transcriptional activation (Fig. 5B). In this situation, the overexpression of DYRK1A suppressed the stimulatory effect of IM and PMA by 75%, resulting in a 4.5-fold increase in luciferase activity compared with that of the control (Fig. 5B).
# The firefly luciferase reporter assay was performed using a One-Glo Assay System (Promega) according to the manufacturer's instructions. The transcriptional activity of NFATc1 in 293T cells was measured with a reporter vector (pGL4.30 luc2P/NFAT-RE/Hygro) (Promega) that expresses the firefly luciferase gene under the control of an NFAT-RE promoter. 293T cells were transfected with the DYRK1A-expressing plasmid and reporter plasmid. On the next day, cells were treated with IM (2.5 μM) and phorbol-12-myristate-13-acetate (10 nM) along with the indicated amounts of inhibitors. Cells were further incubated for 8 h and then cell lysates were harvested to measure luciferase activity.
smiles,measurement,value
O=C(O)c1ccc2c(c1)nc(Nc1cccc(Cl)c1)c1ccncc12 [CX-4945],NFATc1-dependent transcriptional activation (NRE-Luc) suppressed by DYRK1A overexpression,reversed the effect of DYRK1A overexpression in a dose-dependent manner
